From patent publication US20230277452A1, “COMPOSITIONS, DEVICES AND METHODS FOR TREATING NASAL, OTIC AND OTHER TISSUE INFECTION AND/OR INFLAMMATION” (priority 2020, published 2023)

Assays:
[1] = Recovery of force-degraded MFM spiked into placebo cream and of active cream (0.1% MFM), HPLC; format: physicochemical
Procedure: MFM neat and degraded materials were spiked into placebo cream (lot #2020-11-01) to investigate potential partitioning effects and peak interferences and to compare spiked and active cream samples by the procedure in Table 50 with the exception that for acid, base and peroxide degradations, the additions of HCl, NaOH and peroxide were calculated accordingly.
Percent recovery of Force-Degraded Materials Spiked into Placebo is provided in Table 51 below while recovery of active cream formulation (0.1% MFM) is provided in Table 52 below.

[2] = Storage stability: impurities/degradants by HPLC; format: physicochemical
Procedure: Particle size and globule size were likewise measured at the start of storage and at the one month or three month interval, respectively, according to USP 729. Impurities were also measured at the start of storage and at the one month or three month intervals, respectively. Viscosity was also measured at the start of storage and at the one month or three month intervals, respectively. Osmolality was also measured at the start of storage and at the one month or three month intervals, respectively, according to USP 785. Briefly, to measure betamethasone dipropionate and betamethasone content as well as impurities/degradants, HPLC was used. […] The 50 mL tubes were then removed from the heat and vortex mixed again for 30 seconds. If necessary, the tubes were returned to the water bath to prevent cooling. […] The tubes were then centrifuged for 30 minutes at 12,000 RPM and supernatant was transferred to a HPLC vial for analysis. The HPLC system was rinsed well with 50:50 acetonitrile:water to remove buffer salts after each run. […] HPLC was run using a Hypersil ODS 10×30 mm, 3 μm column as the Guard Column and a Hypersil ODS 3×150 mm, 3 μm column as the Analytical Column. The column temperature was maintained at 35° C. with a runtime of 45 minutes, a flow rate of 0.5 mL/minute, an injection volume of 3 μL, an autosampler temperature of 30° C., and using a 254 nm (UV absorbance) detector and collecting PDA from 200 nm to 400 nm for identification testing. […] Mobile Phase B was prepared as 88:12 methanol:acetonitrile. […] All mobile phase solutions were mixed well and degassed prior to use. […] A Working Standard Solution was prepared from 3.0 mL of the IS Stock Solution and 8.0 mL of the BD Stock in a 50 mL volumetric flask to which 150 mg of benzyl alcohol reference standard was added and diluent added to volume followed by mixing well. […] System suitability requirements included those in Table 38. The Ratio RT (RRT) in Table 39 can be calculated from the ratio of the sample retention time to the mean retention time of the bracketing standards.

[3] = stored at 25° C./60% RH, Initial, Mean
[4] = stored at 25° C./60% RH, Initial, Prep #2
[5] = stored at 30° C./65% RH, Initial, Mean
[6] = stored at 30° C./65% RH, Initial, Prep #2
[7] = stored at 40° C./75% RH, Initial, Mean
[8] = stored at 40° C./75% RH, Initial, Prep #2
[9] = stored at 25° C./60% RH, 1 Month, Mean
[10] = stored at 25° C./60% RH, 1 Month, Prep #1
[11] = stored at 25° C./60% RH, 1 Month, Prep #2
[12] = stored at 25° C./60% RH, 3 Month, Mean
[13] = stored at 25° C./60% RH, 3 Month, Prep #1
[14] = stored at 25° C./60% RH, 3 Month, Prep #2
[15] = stored at 30° C./65% RH, 1 Month, Mean
[16] = stored at 30° C./65% RH, 1 Month, Prep #1
[17] = stored at 30° C./65% RH, 1 Month, Prep #2
[18] = stored at 30° C./65% RH, 3 Month, Mean
[19] = stored at 30° C./65% RH, 3 Month, Prep #1
[20] = stored at 30° C./65% RH, 3 Month, Prep #2
[21] = stored at 40° C./75% RH, 1 Month, Mean
[22] = stored at 40° C./75% RH, 1 Month, Prep #1
[23] = stored at 40° C./75% RH, 1 Month, Prep #2
[24] = stored at 40° C./75% RH, 3 Month, Mean
[25] = stored at 40° C./75% RH, 3 Month, Prep #1
[26] = stored at 40° C./75% RH, 3 Month, Prep #2

Row | Compound | Impurity (% of related substances) in Betamethasone Dipropionate Cream Formulation [2, 3] | Impurity (% of related substances) in Betamethasone Dipropionate Cream Formulation [2, 4] | Impurity (% of related substances) in Betamethasone Dipropionate Cream Formulation [2, 5] | Impurity (% of related substances) in Betamethasone Dipropionate Cream Formulation [2, 6] | Impurity (% of related substances) in Betamethasone Dipropionate Cream Formulation [2, 7] | Impurity (% of related substances) in Betamethasone Dipropionate Cream Formulation [2, 8] | Impurity (% of related substances) in Betamethasone Dipropionate Cream Formulation [2, 9] | Impurity (% of related substances) in Betamethasone Dipropionate Cream Formulation [2, 10] | Impurity (% of related substances) in Betamethasone Dipropionate Cream Formulation [2, 11] | Impurity (% of related substances) in Betamethasone Dipropionate Cream Formulation [2, 12] | Impurity (% of related substances) in Betamethasone Dipropionate Cream Formulation [2, 13] | Impurity (% of related substances) in Betamethasone Dipropionate Cream Formulation [2, 14] | Impurity (% of related substances) in Betamethasone Dipropionate Cream Formulation [2, 15] | Impurity (% of related substances) in Betamethasone Dipropionate Cream Formulation [2, 16] | Impurity (% of related substances) in Betamethasone Dipropionate Cream Formulation [2, 17] | Impurity (% of related substances) in Betamethasone Dipropionate Cream Formulation [2, 18] | Impurity (% of related substances) in Betamethasone Dipropionate Cream Formulation [2, 19] | Impurity (% of related substances) in Betamethasone Dipropionate Cream Formulation [2, 20] | Impurity (% of related substances) in Betamethasone Dipropionate Cream Formulation [2, 21] | Impurity (% of related substances) in Betamethasone Dipropionate Cream Formulation [2, 22] | other results
1 | C[C@@H]1C[C@H]2[C@@H]3CCC4=CC(=O)C=C[C@]4(C)[C@@]3(Cl)[C@@H](O)C[C@]2(C)[C@@]1(OC(=O)c1ccco1)C(=O)CCl.O [Mometasone Furoate Momohydrate] | – | – | – | – | – | – | – | – | – | – | – | – | – | – | – | – | – | – | – | – | Difference with Placebo (neat vs spiked recovery) ([1]; 0.1N HC1 (1 hour)): 5.23%; Difference with Placebo (neat vs spiked recovery) ([1]; 0.1N NaOH (1 hour)): 0.13%; Difference with Placebo (neat vs spiked recovery) ([1]; 3% H2O2 (1 hour)): 5.20%; Difference with Placebo (neat vs spiked recovery) ([1]; 60° C. (5 days)): 4.96%; Difference with Placebo (neat vs spiked recovery) ([1]; Control (neat MFM)): 5.87%; Difference with Placebo (neat vs spiked recovery) ([1]; White light (5 days)): 5.29%
2 | CCC(=O)OCC(=O)[C@@]1(OC(=O)CC)[C@@H](C)C[C@H]2[C@@H]3CC(Br)C4=CC(=O)C=C[C@]4(C)[C@@]3(F)[C@@H](O)C[C@@]21C (stereo partly drawn) [Lot 9] | 0.12% | 0.12% | 0.12% | 0.12% | 0.12% | 0.12% | – | – | – | – | – | – | – | – | – | – | – | – | – | – | –
3 | CCC(=O)OCC(=O)C1(O)C(C)CC2C3CCC4=CC(=O)C=CC4(C)C3(F)C(O)CC21C (stereo not drawn) [Lot 4] | – | – | – | – | – | – | 0.09% | 0.08% | 0.10% | 0.22% | 0.19% | 0.25% | 0.15% | 0.13% | 0.17% | 0.50% | 0.44% | 0.56% | 0.53% | 0.48% | Impurity (% of related substances) in Betamethasone Dipropionate Cream Formulation [2, 23]: 0.58%; Impurity (% of related substances) in Betamethasone Dipropionate Cream Formulation [2, 24]: 1.99%; Impurity (% of related substances) in Betamethasone Dipropionate Cream Formulation [2, 25]: 1.86%; Impurity (% of related substances) in Betamethasone Dipropionate Cream Formulation [2, 26]: 2.12%
4 | CCC(=O)OC1(C(=O)CO)C(C)CC2C3CCC4=CC(=O)C=CC4(C)C3(F)C(O)CC21C (stereo not drawn) [Lot 5] | 0.18% | 0.20% | 0.18% | 0.20% | 0.18% | 0.20% | 0.34% | 0.31% | 0.37% | 0.49% | 0.43% | 0.54% | 0.43% | 0.38% | 0.48% | 0.73% | 0.66% | 0.79% | 0.64% | 0.59% | Impurity (% of related substances) in Betamethasone Dipropionate Cream Formulation ([2]; stored at 25° C./60% RH, Initial, Prep #1): 0.16%; Impurity (% of related substances) in Betamethasone Dipropionate Cream Formulation ([2]; stored at 30° C./65% RH, Initial, Prep #1): 0.16%; Impurity (% of related substances) in Betamethasone Dipropionate Cream Formulation [2, 23]: 0.68%; Impurity (% of related substances) in Betamethasone Dipropionate Cream Formulation [2, 24]: 0.93%; Impurity (% of related substances) in Betamethasone Dipropionate Cream Formulation [2, 25]: 0.86%; Impurity (% of related substances) in Betamethasone Dipropionate Cream Formulation [2, 26]: 0.99%; Impurity (% of related substances) in Betamethasone Dipropionate Cream Formulation ([2]; stored at 40° C./75% RH, Initial, Prep #1): 0.16%
